Results reported in ChEMBL document CHEMBL1201862, “PubChem BioAssay data set” (2004).
Active and inactive are the calls of the source.

Assays:
[1] = molecular target: Apoptotic protease-activating factor 1 (Homo sapiens, UniProt O14727); assay type: functional
[2] = molecular target: Melanocortin receptor 4 (Homo sapiens, UniProt P32245); test: inhibitors of MC4R cAMP signaling – cell-based, TR-FRET, biased antagonists, dose response (AID 602298); assay type: functional;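 further: antagonist potency against agonist-stimulated cAMP production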
[3] = cAMP pathway inhibition in counterscreen cell line – TR-FRET cAMP detection, counter-screen for MC4R biased antagonist project, dose response (AID 602305); assay type: functional, cell-based;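 further: U2OS cells stimulated with forskolin near its EC80 as the cAMP inducer; potency is for inhibition of forskolin-stimulated cAMP signaling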
[4] = molecular target: T1, Rac GTPase-activating protein 1 (Homo sapiens, UniProt Q9H0H5); test: blockers of MgcRacGAP-driven Rac1 GTP hydrolysis – biochemical, ADP Hunter fluorescence, primary and confirmatory, confirmation (AID 624330); assay type: functional
T1 sequence (Q9H0H5 whole entry): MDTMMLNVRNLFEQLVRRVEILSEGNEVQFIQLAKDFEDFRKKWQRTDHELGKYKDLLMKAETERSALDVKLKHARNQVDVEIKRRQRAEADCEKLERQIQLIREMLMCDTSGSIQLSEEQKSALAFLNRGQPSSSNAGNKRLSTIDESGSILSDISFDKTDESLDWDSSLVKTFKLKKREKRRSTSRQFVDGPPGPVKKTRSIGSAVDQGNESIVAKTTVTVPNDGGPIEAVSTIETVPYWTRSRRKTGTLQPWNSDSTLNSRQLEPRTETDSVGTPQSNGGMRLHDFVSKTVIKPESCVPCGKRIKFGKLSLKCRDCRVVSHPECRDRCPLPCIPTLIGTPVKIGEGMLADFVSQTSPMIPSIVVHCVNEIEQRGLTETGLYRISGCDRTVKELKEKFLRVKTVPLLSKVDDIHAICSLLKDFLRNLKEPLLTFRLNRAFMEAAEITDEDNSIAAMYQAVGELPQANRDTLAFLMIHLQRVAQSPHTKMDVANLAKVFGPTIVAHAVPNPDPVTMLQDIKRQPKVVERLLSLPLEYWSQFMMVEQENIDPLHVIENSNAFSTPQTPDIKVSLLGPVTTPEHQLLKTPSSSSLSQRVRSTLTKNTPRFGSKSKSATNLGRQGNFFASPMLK

[5] = Fluorescence-based cell-based high throughput dose response assay for inhibitors of the interaction of nucleotide-binding oligomerization domain containing 2 (NOD2) and the receptor-interacting serine-threonine kinase 2 (RIPK2).; assay type: functional; conditions: Homo sapiens
[6] = tested on: INS1; test: INS-1E survival protection against cytokine death – cell-based, luminescence, retest, dose response (AID 449756); assay type: functional; conditions: Rattus norvegicus, INS1;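 further: cell death triggered by IL-1 beta plus TNF-alpha plus IFN-gamma mixture; protective hits raise ATP signal compared with cytokine alone wells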
[7] = molecular target: T2, Mannose-6-phosphate isomerase (Homo sapiens, UniProt P34949); test: MPI inhibition at elevated mannose 6-phosphate – biochemical, fluorescence intensity, high mannose 6-phosphate, primary screen (AID 1220)
T2 sequence (P34949 whole entry): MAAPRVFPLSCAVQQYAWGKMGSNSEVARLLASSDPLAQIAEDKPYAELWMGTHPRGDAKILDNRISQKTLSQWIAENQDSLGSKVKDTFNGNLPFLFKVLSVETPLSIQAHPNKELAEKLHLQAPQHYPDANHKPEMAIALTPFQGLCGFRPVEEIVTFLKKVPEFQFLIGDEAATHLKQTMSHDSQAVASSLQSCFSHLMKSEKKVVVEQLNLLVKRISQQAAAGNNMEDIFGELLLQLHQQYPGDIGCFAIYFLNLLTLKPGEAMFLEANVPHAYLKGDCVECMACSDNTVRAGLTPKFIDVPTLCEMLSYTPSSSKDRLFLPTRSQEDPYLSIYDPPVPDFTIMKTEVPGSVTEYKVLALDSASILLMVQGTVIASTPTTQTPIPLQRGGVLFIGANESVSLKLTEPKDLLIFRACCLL

[8] = molecular target: Beta Lactamase (Pseudomonas aeruginosa, UniProt Q932Y6); test: BLA reporter interference, concentration series – BLA reporter cells, FRET fluorescence, artefact control for NOD2-RIPK2 interaction inhibitor project, dose response (AID 651552); assay type: functional, cell-based
[9] = viability of HCT116 lacking mutant beta-catenin – cell-based, human colon tumor, dose response (AID 1045); assay type: functional;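 further: HCT116 colon tumor cells with beta catenin knocked out; cells exposed to compound for 60 hours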
[10] = viability of PTEN-deleted HCT116 cells – cell-based, HCT116 PTEN knockout, dose response (AID 1047); assay type: functional;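 further: HCT116 colon tumor cells with PTEN knocked out; cells exposed to compound for 60 hours before readout; potency for loss of cell viability measured by luminescence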
[11] = molecular target: Heat shock protein HSP 90-alpha (Homo sapiens, UniProt P07900); assay type: functional, organism-based
[12] = molecular target: T3, Methionyl-tRNA synthetase, putative (Trypanosoma brucei brucei, UniProt Q38C91); assay type: functional, Trypanosoma brucei brucei strain 927/4 GUTat10.1
T3 sequence (Q38C91 whole entry): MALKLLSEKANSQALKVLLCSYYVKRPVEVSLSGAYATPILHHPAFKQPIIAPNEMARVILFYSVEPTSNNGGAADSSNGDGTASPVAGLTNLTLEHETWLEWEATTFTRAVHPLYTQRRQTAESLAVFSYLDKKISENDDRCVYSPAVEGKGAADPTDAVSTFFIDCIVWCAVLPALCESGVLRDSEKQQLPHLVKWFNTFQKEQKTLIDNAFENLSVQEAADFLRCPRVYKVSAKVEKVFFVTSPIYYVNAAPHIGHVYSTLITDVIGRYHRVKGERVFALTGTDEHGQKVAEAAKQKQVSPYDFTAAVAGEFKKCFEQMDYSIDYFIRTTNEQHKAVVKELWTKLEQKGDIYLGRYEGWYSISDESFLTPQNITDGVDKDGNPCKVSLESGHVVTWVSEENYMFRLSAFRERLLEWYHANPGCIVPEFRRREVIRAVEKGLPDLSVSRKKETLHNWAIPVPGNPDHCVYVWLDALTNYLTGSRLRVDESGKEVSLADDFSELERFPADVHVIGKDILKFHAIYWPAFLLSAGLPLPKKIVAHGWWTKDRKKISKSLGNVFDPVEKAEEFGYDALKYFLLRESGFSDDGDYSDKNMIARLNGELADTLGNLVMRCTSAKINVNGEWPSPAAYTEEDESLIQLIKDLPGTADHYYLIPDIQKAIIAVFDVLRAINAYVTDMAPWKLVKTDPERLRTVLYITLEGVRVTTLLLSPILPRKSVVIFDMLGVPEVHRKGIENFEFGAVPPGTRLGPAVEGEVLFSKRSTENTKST

[13] = Late stage counterscreen for inhibitors of Trypanosoma brucei methionyl tRNA synthetase (MetRS): Luminescence-based cell-based high throughput dose response assay to identify compounds that are cytotoxic to Jurkat human T lymphocyte cells.; assay type: functional
[14] = Counterscreen for inhibitors of Trypanosoma brucei methionyl tRNA synthetase (MetRS): Luminescence-based cell-based high throughput dose response assay to identify compounds that are cytotoxic to Jurkat human T lymphocyte cells.; assay type: functional
[15] = molecular target: T3, Methionyl-tRNA synthetase, putative; assay type: functional, Trypanosoma brucei brucei strain 927/4 GUTat10.1; remark: listed apart in the source
[16] = molecular target: 26S proteasome non-ATPase regulatory subunit 14 (Homo sapiens, UniProt O00487); test: inhibition of proteasome subunit RPN11 – biochemical, fluorescence polarization, uHTS hits, confirmation (AID 602368); assay type: functional
[17] = molecular target: 72 kDa type IV collagenase (Homo sapiens, UniProt P08253); test: Dose Response validation of uHTS RPN11 inhibitor hits using a MMP-2 Fluorescence assay.; assay type: functional
[18] = molecular target: Prothrombin (Bos taurus, UniProt P00735); test: thrombin protease inhibitors – biochemical, fluorescence polarization, uHTS hits, dose response (AID 602369); assay type: functional
[19] = molecular target: DNA repair and recombination protein RAD54-like (Homo sapiens, UniProt Q92698); test: RAD54 Holliday junction migration blockers – biochemical, fluorescence, cherry-picked samples, dose series, confirmation (AID 651657); assay type: functional
[20] = molecular target: T4, Histone-lysine N-methyltransferase NSD2 (Homo sapiens, UniProt O96028); assay type: biochemical
T4 sequence (O96028 whole entry): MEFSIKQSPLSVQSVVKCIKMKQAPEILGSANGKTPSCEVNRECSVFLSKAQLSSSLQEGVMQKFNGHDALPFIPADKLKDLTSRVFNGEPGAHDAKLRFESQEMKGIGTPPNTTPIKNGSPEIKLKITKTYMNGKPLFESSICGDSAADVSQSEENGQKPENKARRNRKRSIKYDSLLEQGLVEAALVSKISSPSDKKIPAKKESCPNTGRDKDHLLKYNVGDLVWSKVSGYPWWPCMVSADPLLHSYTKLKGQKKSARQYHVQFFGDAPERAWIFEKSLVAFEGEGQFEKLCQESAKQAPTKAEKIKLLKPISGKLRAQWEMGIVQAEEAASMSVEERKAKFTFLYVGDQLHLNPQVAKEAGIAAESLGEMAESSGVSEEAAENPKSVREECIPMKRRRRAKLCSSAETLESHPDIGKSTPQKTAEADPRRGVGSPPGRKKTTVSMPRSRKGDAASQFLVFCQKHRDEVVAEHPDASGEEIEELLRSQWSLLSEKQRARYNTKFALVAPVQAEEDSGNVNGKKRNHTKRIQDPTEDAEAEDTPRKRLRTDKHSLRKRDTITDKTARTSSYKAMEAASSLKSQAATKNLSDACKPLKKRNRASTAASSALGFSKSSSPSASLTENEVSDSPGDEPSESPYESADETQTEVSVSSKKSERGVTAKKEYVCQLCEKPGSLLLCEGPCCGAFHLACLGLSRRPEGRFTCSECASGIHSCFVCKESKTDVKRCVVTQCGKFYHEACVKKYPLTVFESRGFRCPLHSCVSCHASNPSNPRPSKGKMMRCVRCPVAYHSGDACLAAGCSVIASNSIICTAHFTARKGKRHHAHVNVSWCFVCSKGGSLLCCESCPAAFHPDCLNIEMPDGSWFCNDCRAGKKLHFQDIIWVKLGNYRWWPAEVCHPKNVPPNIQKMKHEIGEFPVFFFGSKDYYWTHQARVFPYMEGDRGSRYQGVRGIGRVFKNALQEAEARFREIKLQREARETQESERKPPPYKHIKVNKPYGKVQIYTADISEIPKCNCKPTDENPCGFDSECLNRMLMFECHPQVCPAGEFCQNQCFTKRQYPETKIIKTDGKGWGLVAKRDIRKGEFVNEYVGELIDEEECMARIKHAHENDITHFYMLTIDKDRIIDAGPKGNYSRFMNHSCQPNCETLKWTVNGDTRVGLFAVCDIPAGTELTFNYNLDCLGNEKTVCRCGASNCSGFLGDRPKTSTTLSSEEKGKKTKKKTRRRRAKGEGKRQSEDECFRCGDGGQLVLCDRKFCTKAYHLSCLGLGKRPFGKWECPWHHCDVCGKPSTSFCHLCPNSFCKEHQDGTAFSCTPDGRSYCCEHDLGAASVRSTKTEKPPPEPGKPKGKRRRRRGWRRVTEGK

Sequence of DNA repair and recombination protein RAD54-like (Q92698 whole entry): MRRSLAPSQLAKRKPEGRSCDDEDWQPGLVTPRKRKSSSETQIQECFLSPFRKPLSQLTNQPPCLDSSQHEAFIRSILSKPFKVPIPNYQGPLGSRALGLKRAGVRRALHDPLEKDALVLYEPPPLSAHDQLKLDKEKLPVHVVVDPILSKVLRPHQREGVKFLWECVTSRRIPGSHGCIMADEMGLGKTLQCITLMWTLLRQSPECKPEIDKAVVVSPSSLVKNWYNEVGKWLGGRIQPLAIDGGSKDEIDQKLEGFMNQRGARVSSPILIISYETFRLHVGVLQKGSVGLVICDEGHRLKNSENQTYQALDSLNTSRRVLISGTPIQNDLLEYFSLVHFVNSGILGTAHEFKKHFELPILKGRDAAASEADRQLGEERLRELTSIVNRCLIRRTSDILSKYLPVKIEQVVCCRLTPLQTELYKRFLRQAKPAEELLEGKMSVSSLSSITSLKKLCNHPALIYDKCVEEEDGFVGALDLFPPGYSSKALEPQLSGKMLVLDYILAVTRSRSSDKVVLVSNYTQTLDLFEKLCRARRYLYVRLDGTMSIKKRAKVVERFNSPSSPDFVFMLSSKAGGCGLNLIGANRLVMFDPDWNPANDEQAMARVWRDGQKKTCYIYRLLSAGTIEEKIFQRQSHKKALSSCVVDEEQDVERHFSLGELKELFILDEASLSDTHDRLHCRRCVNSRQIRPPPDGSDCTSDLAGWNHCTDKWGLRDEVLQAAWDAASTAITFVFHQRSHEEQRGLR
Sequence of 72 kDa type IV collagenase (P08253 whole entry): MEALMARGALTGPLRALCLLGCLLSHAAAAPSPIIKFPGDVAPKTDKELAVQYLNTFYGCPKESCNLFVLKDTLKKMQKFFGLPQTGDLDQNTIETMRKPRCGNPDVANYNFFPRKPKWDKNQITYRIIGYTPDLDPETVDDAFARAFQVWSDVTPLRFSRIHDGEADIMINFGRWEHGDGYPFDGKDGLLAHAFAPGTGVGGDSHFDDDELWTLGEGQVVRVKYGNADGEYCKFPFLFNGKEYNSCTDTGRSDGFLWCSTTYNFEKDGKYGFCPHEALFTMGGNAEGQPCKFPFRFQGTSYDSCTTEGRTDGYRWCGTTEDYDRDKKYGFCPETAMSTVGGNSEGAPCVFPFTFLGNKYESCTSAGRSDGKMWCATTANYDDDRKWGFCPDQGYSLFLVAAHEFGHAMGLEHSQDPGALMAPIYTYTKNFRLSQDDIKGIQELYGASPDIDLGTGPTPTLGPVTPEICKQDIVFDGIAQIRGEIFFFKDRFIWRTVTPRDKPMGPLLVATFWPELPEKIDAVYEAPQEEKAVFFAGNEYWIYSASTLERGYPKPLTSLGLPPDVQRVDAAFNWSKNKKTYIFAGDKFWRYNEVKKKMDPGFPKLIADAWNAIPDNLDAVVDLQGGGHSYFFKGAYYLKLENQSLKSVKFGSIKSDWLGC
Sequence of Apoptotic protease-activating factor 1 (O14727 whole entry): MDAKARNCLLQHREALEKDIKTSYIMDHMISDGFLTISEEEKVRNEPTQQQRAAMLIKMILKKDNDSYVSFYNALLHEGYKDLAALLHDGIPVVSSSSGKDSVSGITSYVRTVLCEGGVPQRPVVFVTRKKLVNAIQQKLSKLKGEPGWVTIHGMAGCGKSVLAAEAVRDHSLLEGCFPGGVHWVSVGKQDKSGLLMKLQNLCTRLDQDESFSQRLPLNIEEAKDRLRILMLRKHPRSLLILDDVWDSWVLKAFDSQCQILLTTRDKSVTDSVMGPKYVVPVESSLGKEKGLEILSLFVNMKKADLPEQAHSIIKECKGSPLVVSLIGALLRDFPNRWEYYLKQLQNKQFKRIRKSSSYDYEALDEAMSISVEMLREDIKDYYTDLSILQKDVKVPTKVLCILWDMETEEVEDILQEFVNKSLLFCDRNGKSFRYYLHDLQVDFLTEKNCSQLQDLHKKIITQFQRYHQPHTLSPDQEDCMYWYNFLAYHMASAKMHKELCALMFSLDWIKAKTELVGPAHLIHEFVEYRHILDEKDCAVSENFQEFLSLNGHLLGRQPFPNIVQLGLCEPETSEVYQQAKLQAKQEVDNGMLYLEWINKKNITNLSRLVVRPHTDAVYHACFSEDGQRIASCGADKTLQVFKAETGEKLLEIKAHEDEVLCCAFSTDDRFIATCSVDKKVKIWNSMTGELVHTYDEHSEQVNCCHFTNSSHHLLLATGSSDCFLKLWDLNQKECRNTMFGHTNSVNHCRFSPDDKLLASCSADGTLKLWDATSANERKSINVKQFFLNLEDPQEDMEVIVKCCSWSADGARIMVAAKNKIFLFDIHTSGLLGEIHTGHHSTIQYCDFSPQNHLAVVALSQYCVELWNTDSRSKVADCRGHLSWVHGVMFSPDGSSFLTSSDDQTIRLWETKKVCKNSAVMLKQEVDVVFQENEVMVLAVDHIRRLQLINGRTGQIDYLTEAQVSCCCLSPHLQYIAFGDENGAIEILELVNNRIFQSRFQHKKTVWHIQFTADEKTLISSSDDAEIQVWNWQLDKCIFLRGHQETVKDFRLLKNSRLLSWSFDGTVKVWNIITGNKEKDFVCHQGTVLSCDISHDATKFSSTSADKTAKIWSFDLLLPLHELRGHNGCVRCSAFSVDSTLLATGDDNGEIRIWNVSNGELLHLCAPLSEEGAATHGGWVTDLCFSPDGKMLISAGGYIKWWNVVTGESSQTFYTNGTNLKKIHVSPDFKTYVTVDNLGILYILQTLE
Sequence of 26S proteasome non-ATPase regulatory subunit 14 (O00487 whole entry): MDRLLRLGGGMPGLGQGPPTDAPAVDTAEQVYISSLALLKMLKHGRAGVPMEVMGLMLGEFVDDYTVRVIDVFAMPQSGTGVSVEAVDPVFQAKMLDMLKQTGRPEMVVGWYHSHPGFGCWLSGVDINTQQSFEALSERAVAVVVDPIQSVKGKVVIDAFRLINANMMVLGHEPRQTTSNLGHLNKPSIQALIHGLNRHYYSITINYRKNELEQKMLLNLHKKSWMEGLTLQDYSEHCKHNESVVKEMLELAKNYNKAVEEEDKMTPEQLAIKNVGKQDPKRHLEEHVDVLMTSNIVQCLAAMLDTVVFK
Sequence of Beta Lactamase (Q932Y6 whole entry): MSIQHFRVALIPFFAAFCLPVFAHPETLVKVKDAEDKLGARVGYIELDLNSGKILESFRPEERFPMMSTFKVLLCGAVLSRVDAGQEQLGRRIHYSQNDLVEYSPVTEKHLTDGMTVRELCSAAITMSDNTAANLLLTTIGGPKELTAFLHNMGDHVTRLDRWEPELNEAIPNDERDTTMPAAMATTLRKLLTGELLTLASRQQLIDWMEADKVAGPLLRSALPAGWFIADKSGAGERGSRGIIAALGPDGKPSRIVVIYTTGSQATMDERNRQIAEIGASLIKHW
Sequence of Melanocortin receptor 4 (P32245 whole entry): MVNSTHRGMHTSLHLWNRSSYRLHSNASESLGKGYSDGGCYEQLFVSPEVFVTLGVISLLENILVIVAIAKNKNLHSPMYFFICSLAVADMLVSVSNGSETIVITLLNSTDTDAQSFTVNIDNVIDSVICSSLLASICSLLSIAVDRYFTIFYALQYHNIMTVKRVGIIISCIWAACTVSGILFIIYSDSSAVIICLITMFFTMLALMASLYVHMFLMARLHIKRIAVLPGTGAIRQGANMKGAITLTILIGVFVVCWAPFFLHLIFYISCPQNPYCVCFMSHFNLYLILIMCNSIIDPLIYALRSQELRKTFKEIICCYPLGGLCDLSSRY

In the case of `COc1ccc(C(=O)Nc2ccc3c(c2)C(=O)c2ccccc2C3=O)cc1OC`, the IC50 [1] is reported as > 100 µM (inactive).
For `CC1(C)OC(=O)C(=Cc2ccc(-c3ccc(S(N)(=O)=O)cc3)o2)C(=O)O1`, the IC50 [2] was > 64.6 µM (inactive), the IC50 [3] was > 64.6 µM (inactive) and the IC50 [4] was 41.8 µM (active).
In the case of `CC1=C(C)/C(=N\OS(=O)(=O)c2ccc(C)cc2)C=CC1=O`, the IC50 [5] is reported as 3.42 µM (active), the AC50 [6] is reported as 2.15 µM (active) and the IC50 [7] is reported as 5.11 µM (active). For the same compound, the IC50 [8] was 31 µM (inactive), the EC50 [9] was 37.6 µM (active) and the EC50 [10] was 35.2 µM (active). The AC50 [11] was 1.61 µM (active).
In the case of `C[C@H](O)[C@@H]1C(=O)N2CCc3c([nH]c4ccccc34)[C@@H]2C[C@@H]1N(C)Cc1ccc2c(c1)OCO2`, the IC50 [12] is reported as 1.34 µM (active), the IC50 [13] is reported as > 83.3 µM (inactive) and the IC50 [14] is reported as 83.3 µM (inactive). For the same compound, the IC50 [15] was 0.672 µM (active).
With `O=C(Cn1cc(C(=O)COc2ccccc2)c2ccccc21)NCc1ccco1` the IC50 [16] was 47.6 µM (active), the IC50 [17] was > 100 µM (inactive) and the IC50 [18] was 41.3 µM (active).
In the case of `CCNC1CCC(Nc2ccnc3cc(Cl)ccc23)CC1` (stereo not given), the AC50 [19] is reported as 25.9 µM (active) and the AC50 [20] is reported as 7.52 µM (active).
